{
  "source": "patent US20230105108A1",
  "about": "“COMPOUNDS FOR THE TREATMENT OF BACTERIAL INFECTIONS AND POTENTIATION OF ANTIBIOTICS” (GEORGIA STATE UNIVERSITY RESEARCH FOUNDATION, INC., priority 2019, published 2023)",
  "key": {"MRSA (ATCC 33592)": {"system": "MRSA (ATCC 33592)", "assay": "MIC determination and sensitization fold on MRSA", "assay_type": "cell-based, methicillin-resistant Staphylococcus aureus", "details": "MRSA; for Sensitization fold: rifampicin"}, "M. smegmatis": {"system": "M. smegmatis", "assay": "MIC on mycobacteria", "assay_type": "cell-based, Mycobacterium smegmatis", "details": "Mycolicibacterium smegmatis, read-out: MIC on mycobacteria"}, "HEK293 cells": {"system": "HEK293 cells", "assay": "Cytotoxicity on mammalian cells (CCK-8), HEK293", "assay_type": "cell-based", "details": "for CC50: HEK293 cell line, 24 h; for IC50: Homo sapiens", "in_short": "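Cells seeded a day ahead to ~80% confluency, exposed to varied compound concentrations for 24 h at 37° C, 5% CO2. CCK-8 added for a further 2 h and OD 450 nm read; viability expressed as percent of untreated control.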"}, "[1]": {"system": "E. coli (lipid A part of LPS)", "assay": "Dansyl-PMBN displacement assay", "assay_type": "binding", "details": "E. coli with 10 μM Dansyl-PMBN; sensitizer 0 to 200 μM", "protocol": "Panel (C) depicts a Dansyl-PMBN displacement assay. […] The fluorescent intensity of 10 μM Dansyl-PMBN in HEPES buffer was recorded as baseline F0. Fluorescent intensity/%=(F1−Fx)/(F1−F0). […] All results are triplicates.\nDansyl-PMBN displacement assay. Dansyl-PMBN was synthesized according to literature procedure. Dansyl-PMBN was dissolved in H2O to make 500 μM stock. Bacterial sensitizers were dissolved in ethanol to make 10 mM stock solutions. […] The E. coli stock was centrifuged at 3000 g for 10 min, washed with HEPES buffer (pH=7.2) and then centrifuged again to obtain bacteria pallet. The pallet was then gently resuspended in HEPES buffer to obtain a E. coli suspension with OD600 about 0.3. The experiment was performed on 96-well plates. Each well was supplied with 100 μl coli suspension with 10 μM Dansyl-PMBN, then to each well, different concentrations of bacterial sensitizers were added to achieve a final concentration ranging from 0 to 200 μM.\nMg^2+ can bridge between adjacent lipid A and enhance the membrane integrity. […] This phenomenon was also observed on MD-100. The culture medium for E. coli is Muller Hinton Broth (Cation adjusted), which already has at least 0.5 mM Mg^2+, so the “zero concentration point of Mg^2+” in FIG. 4 represents the amount of exogenous Mg^2+, not the total Mg^2+ in the culture medium. […] A fluorescent conjugate of a polymyxin-B derivative (Dansyl-PMBN, Scheme 3), which would show increased fluorescent intensity after binding to the lipid A part of LPS, was used to further probe this issue. In the presence of another component that can also binding to lipid A, Dansyl-PMBN would be replaced, leading to decreased fluorescent intensity."}, "[2]": {"system": "A. baumannii (ATCC 17978)", "assay": "MIC, sensitization fold and FIC index on A. baumannii", "assay_type": "cell-based", "details": "Acinetobacter baumannii, ATCC17978; A. baumannii; read-out: MIC of MD-124"}, "K. pneumoniae (43816)": {"system": "K. pneumoniae (43816)", "assay": "MIC, sensitization fold and FIC index on K. pneumoniae", "assay_type": "cell-based", "details": "Klebsiella pneumoniae; K. pneumoniae; read-out: MIC of MD-124"}, "E. coli": {"system": "E. coli", "assay": "Ex vivo skin burn infection model, wild-type E. coli", "details": "human skin burn, hypromellose gel, 24 hours; 4‰ (w/w) novobiocin, 1.5‰ MD-124", "protocol": "To achieve topical application, compounds were formulated as hypromellose gel. […] After that, skin was loaded with hypromellose gel with different antibiotics and cultured at 37° C. for 24 hours. After 24 hours incubation, the skin sample was homogenized and the supernatants were serially diluted and plated on agar plates, from which bacterial counts on the skin was calculated. […] 1‰ polymyxin B hypromellose gel was used as positive control."}},
  "note": "Counter-ions that a name gives are not always drawn. Like-named read-outs stand apart in the source and are kept apart here.",
  "data": [
    {"smiles": "Cc1cc(COc2ccc(C(=N)N)cc2)cc(COc2ccc(C(=N)N)cc2)c1", "note": "[MD-100, 4,4′-(((5-methyl-1,3-phenylene)bis(methylene))bis(oxy))dibenzimidamide dihydrochloride]", "values": [
      {"measurement": "Sensitization fold", "setting": "MRSA (ATCC 33592); compound at 6 μM", "value": "32-fold at 6 μM"},
      {"measurement": "MIC", "setting": "M. smegmatis", "value": 12, "unit": "µM"},
      {"measurement": "CC50", "setting": "HEK293 cells", "value": 100, "unit": "µM"},
      {"measurement": "IC50", "setting": "HEK293 cells; HEK293", "value": 100, "unit": "µM"},
      {"measurement": "displacement of Dansyl-PMBN (fluorescent intensity)", "setting": "[1]", "value": "able to displace Dansyl-PMBN although not as much as MD-124"}
    ]},
    {"smiles": "N=C(N)c1ccc(COc2cc(OCc3ccc(C(=N)N)cc3)cc(C(F)(F)F)c2)cc1", "note": "[MD-124, 4,4′-(((5-(trifluoromethyl)-1,3-phenylene)bis(oxy))bis(methylene)) dibenzimidamide dihydrochloride]", "values": [
      {"measurement": "Sensitization fold", "setting": "MRSA (ATCC 33592); compound at 5 μM", "value": "32-fold at 5 μM"},
      {"measurement": "MIC", "setting": "MRSA (ATCC 33592); Staphylococcus aureus, 24 h, compound alone, read-out: MIC", "value": 10, "unit": "µM"},
      {"measurement": "MIC", "setting": "M. smegmatis; M. smegmatis", "value": 12, "unit": "µM"},
      {"measurement": "CC50", "setting": "HEK293 cells", "value": 100, "unit": "µM"},
      {"measurement": "IC50", "setting": "HEK293 cells; HEK293 cells (Table 6), read-out: IC50", "value": 100, "unit": "µM"},
      {"measurement": "MIC", "setting": "[2]", "value": 25, "unit": "µg/mL"},
      {"measurement": "MIC", "setting": "K. pneumoniae (43816)", "value": 25, "unit": "µg/mL"},
      {"measurement": "displacement of Dansyl-PMBN (fluorescent intensity)", "setting": "[1]", "value": "steadily decreased in a concentration dependent fashion"},
      {"measurement": "E. coli growth inhibition / bacterial load vs vehicle group", "setting": "E. coli", "value": "neither 4‰ (w/w) novobiocin nor 1.5‰ MD-124 themselves achieved significant E. coli growth inhibition"}
    ]}
  ]
}
